Key:
[1] = tested on: rats; experiment: Rat sleep-wake bioassay (EEG, EMG, locomotor activity, body temperature); assay type: in vivo, Wistar rats
Experimental: Rat preparation, monitoring, and analysis of the data was conducted as described below. […] Body temperature and locomotor activity were monitored via a miniature transmitter (Minimitter) surgically placed in the abdomen. The cranial implant consisted of stainless steel screws (2 frontal [+3.9 AP form bregma, ±2.0 ML] and two occipital [-6.4 AP, ±5.5 ML]) for EEG recording. Two Teflon-coated steel wires were positioned under the nuchal trapezoid muscles for EMG recording. All leads were soldered to a miniature connector prior to surgery, and chemically sterilized in Glutarex (3M Co.). The implant assembly was affixed to the skull with dental acrylic. A minimum of three weeks was allowed for recovery.
Each rat was permanently housed in its own individual recording cage located within separate, ventilated compartments of custom-designed stainless steel cabinets. Each Nalgene microisolator cage, which is an individual recording cage, was enhanced with a filter-top riser and swivel-commutator. Food and water were available ad libitum. […] Animals were undisturbed for three days both before and after treatments. In practice, animals were undisturbed during the weekend. Treatments were administered on Monday evening or Tuesday morning, and the animals were again left undisturbed until Friday, when cages were cleaned and the data copied off the computers.
The computers monitored the EEG, EMG, body temperature and non-specific locomotor activity (LMA) via telemetry, and drinking activity from 48 rats simultaneously. The computer classified the arousal state every 10 seconds using pattern-matching algorithms which included behavior-dependent contextual rules. Drinking and LMA were recorded every 10 seconds, while body temperature was recorded every minute.
Therefore, time of treatment is important. By administering the drug at CT-18, which is the peak of the rat's activity dominated period, the natural tendency for the rats to sleep at lights on ([…] clock time or Circadian Time, CT-0) cannot mask the hypnotic activity of the drug. By administering the drug at CT-5 when the propensity for REM sleep is greatest, the drug's effect on REM sleep can be measured more accurately. The activity dominated period begins when the lights are turned off at CT-12 or 15:00 clock time on the Figures.
The drugs and controls were injected intraperitoneally or administered orally in a volume of 1 ml/kg or […], respectively, under dim red illumination for the CT-18 studies or under regular light for the CT-5 studies.
A matched control group, N=20, was selected from a pool of 60 available control candidates. These matched control groups were constructed as follows.

[2] = target: steroid site on the GABAA receptor-chloride channel complex; experiment: [35S]TBPS binding assay; set-up: species or system Male Sprague-Dawley rats; settings: inhibition of [35S]TBPS (2 nM) binding, rat cerebral cortex P2 membranes, 5 µM GABA, 90 minute incubation at 22°C
Experimental: TBPS binding assays were conducted according to the following procedures, which are described in Gee, K.W.; Lawrence, L.J.; and Yamamura, H. I., "Modulation of the Chloride Ionophore by Benzodiazepine Receptor Ligands Influence of Gamma-Aminobutyric Acid and Ligand Efficacy," Molecular Pharmacology, 30:218, 1986. Male Sprague-Dawley rats (200-250g) were anesthetized with carbon dioxide and decapitated. The rats' brains were removed and the cerebral cortices were dissected and homogenized in 10 volumes of 0.32 M sucrose. Tissue was centrifuged at 1000 x g for 10 minutes and the resultant supernatant was centrifuged at 9,000 g for 20 minutes. The resultant pellet was resuspended in 10 volumes of 200 mM NaCl/50 mM Na-K phosphate pH 7.4 buffer (binding buffer) and then centrifuged at 9,000 x g for 10 minutes. This washing procedure was repeated twice and the final P2 pellet was resuspended in the binding buffer. For the binding assay, [^35S] TBPS (2 nM) was co-incubated in binding buffer with P2 membranes and 5 µM GABA and either 1) no additions to measure total binding; 2) 2 µM unlabeled TPBS to measure nonspecific binding; 3) the neurosteroid ranging in concentration from 1 Nm to 10µM. Following a 90 minute incubation at 22°C, the suspension was filtered and the bound radioactivity was determined by liquid scintillation counting. […] A lower IC50 indicates higher affinity for the steroid site on the GABAA receptor-chloride channel complex. Table 1 gives the IC50 values of representative steroids used in the present invention.

[3] = Solubility in water; assay type: physicochemical; settings: read-out: soluble in water

SMILES	REM sleep [1]	body temperature [1]	duration of uninterrupted NREM sleep (sleep bout length) [1]	reduction in LMA over time ([1]; 18 mg/kg at CT-18)	rebound reduction of NREM sleep ([1]; administered at CT-18)	IC50 [2] [nM]	solubility [3] [mg/mL]
C#C[C@@]1(O)CC[C@@]2(C)[C@H](CC[C@@H]3[C@@H]2CC[C@]2(C)[C@@H](C(C)=O)CC[C@@H]32)C1 [3β-ethynyl-3α-hydroxy-5β-pregnan-20-one]	lack an inhibitory effect on REM sleep	minimal effect on body temperature	strong increase	moderately smaller reduction	no rebound reduction of NREM sleep	39	
C#C[C@@]1(O)CC[C@@]2(C)[C@H](CC[C@@H]3[C@@H]2CC[C@]2(C)[C@@H](C(=O)COC(=O)CCC(=O)O)CC[C@@H]32)C1 [Sodium 3α,21-dihydroxy-3β-ethynyl-5β-pregnan-20-one 21-hemisuccinate]							> 20
